The RepoRT retention time repository

assay: Agilent ZORBAX 300 SB-C18, 150 × 1 mm, 3.5 µm; A: water + 0.01% heptafluorobutyric acid; B: acetonitrile + 0.01% heptafluorobutyric acid; gradient (min/%B) 0/0 100/90; details: stereoisomer not certain

In order of rising LC retention time:
1. O=c1cc[nH]c(=O)[nH]1  1.47 min
2. C[n+]1cccc(C(=O)O)c1  1.49 min
3. Cc1ncc(C[n+]2csc(CCOP(=O)(O)OP(=O)(O)O)c2C)c(N)n1  1.62 min
4. O=C1NCCO1  2.05 min
5. NC(N)=NC(CC(=O)O)C(=O)O (stereo unspecified)  2.11 min
6. Cc1nn[nH]n1  2.16 min
7. Nc1cc(=O)[nH]c(=S)[nH]1  2.25 min
8. c1c[nH]cn1  2.95 min
9. O=C(O)c1cncc(C(=O)O)c1  3.03 min
10. Nc1ccncn1  3.44 min
11. O=CN1CCN(C=O)CC1  3.45 min
12. Cc1c(N)cccc1C(N)=O  5.38 min
13. Cc1cnc[nH]1  5.66 min
14. CC(=O)NC(Cc1ccc(O)cc1)C(N)=O (stereo unspecified)  6.07 min
15. Cn1cnnc1-c1ccncc1  6.08 min
16. Cc1ccc2nc(C)cc(C(=O)O)c2c1  6.16 min
17. NC(=O)C(O)c1ccccc1 (stereo unspecified)  6.19 min
18. CN(C)c1c[nH]c(=O)[nH]c1=O  6.22 min
19. CCCN1CCCC(C(N)=O)C1 (stereo unspecified)  6.49 min
20. CC(=O)NNc1nc(C)cc(C)n1  6.5 min
21. O=C(O)C1Cc2ccccc2CN1 (stereo unspecified)  6.54 min
22. C1CCNCC1  6.6 min
23. C1CCCNCC1  6.61 min
24. Nc1ccccc1N  6.66 min
25. CCN1CCNCC1  6.67 min
26. CCCNC1CCN(C(C)=O)CC1  6.77 min
27. O=c1[nH][nH]c(=O)n1-c1ccc2c(c1)OCO2  6.9 min
28. CNCCc1ccccn1  6.92 min
29. CC(C)C(C)N (stereo unspecified)  6.98 min
30. c1ccc(CCNc2ccncn2)nc1  7.03 min
31. CC1(C)CC(=O)NC(=O)C1  7.12 min
32. Cn1c(C(C)(C)C)nc(N)nc1=O  7.21 min
33. Nc1ccnc2ccccc12  7.32 min
34. CC1(C)CC(=NNC(=O)C(=O)NN=C2CC(C)(C)NC(C)(C)C2)CC(C)(C)N1  7.32 min
35. Cc1nc2ccc(N)cc2nc1C  7.33 min
36. COCCCN1CCC(CN)C1 (stereo unspecified)  7.37 min
37. CCCCC[N+]1(C)CCCC1  7.4 min
38. CC1(C)CC(NC(=O)C(=O)NC2CC(C)(C)NC(C)(C)C2)CC(C)(C)N1  7.48 min
39. CN1C(=O)CC(CN)c2ccccc21 (stereo unspecified)  7.58 min
40. CC(C)(C)NCC(O)c1ccc(O)c(CO)c1 (stereo unspecified)  7.63 min
41. O=C(O)CCNc1cc(C(=O)O)ccc1C(=O)O  7.69 min
42. NC1C(=O)Nc2ccccc21 (stereo unspecified)  7.8 min
43. Nc1ccc(C(=O)NC=C2CCCC2)cc1  7.87 min
44. C=CCN(CC=C)CC=C  7.98 min
45. CC(=NCCN1CCNCC1)C1=C(O)CC(C)(C)CC1=O  8.02 min
46. CC1CC(C)(C)Nc2ccc(O)cc21 (stereo unspecified)  8.04 min
47. O=C1c2ccccc2C(=O)N1CCN1CCNCC1  8.07 min
48. O=C(O)CNC(=O)C1CCCCC1  8.07 min
49. CCN(CC)c1nc(N)nc(N2N=CC=NN2)n1  8.12 min
50. Cc1c(-c2nc3ccccc3[nH]2)cnn1C  8.16 min
51. CCC(C)N1CNc2c(c(=O)[nH]c(=O)n2Cc2ccccc2)C1 (stereo unspecified)  8.19 min
52. Cc1[nH]n(-c2ccccc2)c(=O)c1C=O  8.21 min
53. Cc1cccc(N(C)C)c1  8.26 min
54. Cc1c(N)cc(N)cc1NC(=O)c1ccccc1  8.28 min
55. CN1C(=O)C2CN(CCc3ccccc3)CNC2N(C)C1=O (stereo unspecified)  8.29 min
56. Cc1cc(C)cc(N)c1  8.29 min
57. C=Cc1ccc(N)cc1  8.31 min
58. Nc1cccc2cc3ccccc3nc12  8.34 min
59. CC(=O)Nc1cccc(C(C)=O)c1  8.35 min
60. CCN(CC)CCNc1c(N)c(=O)oc2ccccc12  8.37 min
61. O=C1CCC2(O)C3Cc4ccc(O)c5c4C2(CCN3CC2CC2)C1O5 (stereo unspecified)  8.38 min
62. Cc1ccnc2c1ccc1cccnc12  8.43 min
63. Nc1cccc2c1CCC2  8.43 min
64. CC(=O)N1CCc2cc(C(=O)O)ccc21  8.48 min
65. CCN1C(=O)C2C(C)NC3(C(=O)Nc4ccccc43)C2C1=O (stereo unspecified)  8.61 min
66. O=C(NCCNC(=O)c1ccccn1)c1ccccn1  8.71 min
67. CC1Cc2ccccc2N1C(=O)CN1CCN(C)CC1 (stereo unspecified)  8.74 min
68. Cn1c(=O)n(C)c(=O)n(CC(=O)N2CCCCC2)c1=O  8.88 min
69. CC(CCc1ccc(O)cc1)NCC(O)c1ccc(O)cc1 (stereo unspecified)  8.93 min
70. CC(CCc1ccc(O)cc1)NCCc1ccc(O)c(O)c1 (stereo unspecified)  8.94 min
71. CN(C)C(=O)c1ccccc1  8.98 min
72. c1cncc(-c2cccs2)c1  9.08 min
73. Cc1[nH]c2ccccc2c1CCNC(N)=O  9.08 min
74. CC(C)CCCC(C)N (stereo unspecified)  9.28 min
75. CCCCCCC(C)NCCO (stereo unspecified)  9.31 min
76. Cc1ccc(CN2C(=O)CCC2=O)o1  9.52 min
77. c1ccc(-n2nnnc2-n2ccnc2)cc1  9.59 min
78. Cc1ccc(NC(=S)NC2CC(C)(C)NC(C)(C)C2)c(C)c1  9.61 min
79. C=CCC1(C(C)C)C(=O)NC(=O)NC1=O  9.74 min
80. Cc1ccc(NC2=NCC(C)S2)cc1C (stereo unspecified)  9.88 min
81. Nc1ccc(C=C(C(=O)O)c2ccccc2)cc1  9.96 min
82. COc1ccc(C=NCCC2=CCCCC2)cc1OC  10 min
83. Cc1cccc2c1N(C)C(=O)C2=O  10.1 min
84. Cn1cccc1C=NNC(=O)CCCC(=O)NN=Cc1cccn1C  10.2 min
85. CNC(=S)NNC(=O)Cc1cccc2ccccc12  10.3 min
86. CC(C)c1ccc(C=NNC(=O)C[n+]2ccccc2)cc1  10.4 min
87. CCCCCCC[n+]1ccc(-c2cc[n+](CCCCCCC)cc2)cc1  10.5 min
88. CCOC(=O)C(C(C)=NNC(=O)c1ccc(NC(C)=O)cc1)C(C)C (stereo unspecified)  10.8 min
89. S=C(Nc1cccnc1)NC1CCCc2ccccc21 (stereo unspecified)  11 min
90. COc1cc(OC)c2cc[nH]c2c1  11.1 min
91. CCOC(=O)CC(=O)Nc1ccc(C(=O)OC)cc1  11.1 min
92. CCOC(=O)CN1C(=O)N(C)Cc2ccccc21  11.4 min
93. CCN(CC)c1ccc(N=Cc2ccc(N(CC)CC)cc2O)cc1  11.5 min
94. CC(=O)c1[nH]c(C)c(C(=O)c2ccccc2)c1C  11.6 min
95. c1ccc(CNCCc2csc3c2CCCC3)cc1  11.7 min
96. CN(C)CCC=C1c2ccccc2CCc2ccccc21  11.8 min
97. O=C1OCc2cc(-n3cccc3)ccc21  11.8 min
98. Cc1ccc(-n2nc(-c3cn(C)nc3C)cc2-c2cn(C)nc2C)cc1  12 min
99. Cc1ccccc1N1C(=O)c2ccc(C(=O)O)cc2C1=O  12 min
100. Cc1cc(C(c2cc(C)c(N)c(C)c2)c2ccco2)cc(C)c1N  12.1 min
101. Cc1ccc(C(=O)NCc2ccco2)c(C)c1  12.3 min
102. Cc1ccccc1Nc1nc(Nc2ccccc2C)c2ccccc2n1  12.5 min
103. O=C(C=Cc1ccccc1)c1ccc(O)c(O)c1O  12.6 min
104. Cc1cccc2cc[nH]c12  12.6 min
105. Cc1cc(C=NNC(N)=S)c(C)n1-c1ccccc1  12.7 min
106. CCSc1ccc2c(c1)N(CCCN1CCN(C)CC1)c1ccccc1S2  12.8 min
107. Cc1ccc(CNC(=S)Nc2ccccc2)n1C  13.1 min
108. CC(CC(=O)Nc1ccc(Nc2ccccc2)cc1)=NNC(=O)Cc1ccccc1  13.1 min
109. CCCCN=CC1=C(O)CC(c2ccccc2)CC1=O (stereo unspecified)  13.3 min
110. Cc1ccc(-c2cc(C(=O)O)c3ccccc3n2)cc1C  13.3 min
111. CCOC(=O)c1c(-c2ccccc2)c[nH]c1C  13.4 min
112. CC(C)(C)NC(=S)NCc1ccccc1  13.4 min
113. CCN(CC)c1ccc(C2Nc3ccccc3C(CC)(CC)O2)cc1 (stereo unspecified)  13.8 min
114. Cc1ccccc1NCC(=O)Nc1c(C)cccc1C  13.8 min
115. COc1ccc(OCc2nc3ccccc3nc2C)cc1  14.1 min
116. CCOc1ccc(C(=O)NNC(=O)COc2ccc(C(C)CC)cc2)cc1 (stereo unspecified)  15 min
117. COc1ccc(C(=O)C=Cc2ccccc2)cc1  15.7 min
118. COC(=O)Cn1c2c(c3ccccc31)CCCC2  16.2 min
119. Cc1cccc(C(O)(C(=O)NN(C(=O)Nc2ccccc2)c2ccccc2)c2cccc(C)c2)c1  16.3 min
120. c1ccc(Sc2ccc3ccccc3n2)cc1  16.3 min
121. CC(C)(C)c1ccc(-c2cc(C(=O)O)c3c(ccc4ccccc43)n2)cc1  16.4 min
122. CCCCc1ccc(NC(=O)c2ccc(OC(C)=O)cc2)cc1  16.5 min
123. CC(=O)NC1CCC2C3CC=C4CC(OC(C)=O)CCC4(C)C3CCC12C (stereo unspecified)  16.7 min
124. O=C(NN=Cc1ccc(OCc2ccccc2)cc1)c1ccc(-c2ccccc2)cc1  16.9 min
125. COc1ccc2c(c1C)CCC1=C(C)C(=O)CCC12C (stereo unspecified)  17 min
126. Cc1ccc(-c2cnc3ccccc3n2)c(C)c1  17.4 min
127. CCCCCCn1c2ccccc2c2cc(C(=O)O)ccc21  17.8 min
128. Cc1ccsc1C=CC(=O)c1ccc2ccccc2c1  18.5 min
129. O=C(Nc1ccc2c(c1)oc1ccccc12)c1ccc(C2CCCCC2)cc1  20.1 min
130. c1ccc(-n2c3c(c4ccccc42)CCC3)cc1  20.1 min
131. c1ccc(N(c2ccccc2)c2ccccc2)cc1  20.2 min
